Data on 20 molecules can be found in patent publication US20180273528A1 (LES LABORATOIRES SERVIER, priority 2015, published 2018).

For one test, the target named is DYRK1A (Homo sapiens, UniProt Q13627). As to the kind of experiment: Kinase TR-FRET assay, DYRK1A. The format is biochemical. Also on record: full-length, wild-type human DYRK1A (NM_001396) with an HA tag; expressed in transfected cells; host or cells: human U2-OS osteosarcoma cells, transient transfection of a pcDNA3.1 plasmid. The settings on record: full-length human kinase, 10 μM ATP. The procedure: Inhibition of the enzymatic activity of human kinases was evaluated in a Time-Resolved Fluorescence Resonance Energy Transfer (TR-FRET) assay in 384-well reaction plates. […] Test compounds of the invention were added in reaction buffer at a range of concentrations from 0.1 nM to 30 μM. Following addition of EDTA (Sigma E7889, 10 mM) to stop the reaction, Europium-labelled mouse monoclonal antibody recognizing phospho-Thr232 in MBP (Perkin Elmer TRF0201, 1 nM) was added.

Test [1] has as its target T1, His-TEV-DYRK1A Kinase domain (aa127-485) (Homo sapiens, UniProt Q13627).
T1 construct: His-TEV-DYRK1A Kinase domain (aa127-485); His tag (N); TEV protease cleavage site (N)
As to the kind of experiment: Kinase ADP assay (ADP Hunter), DYRK1A kinase domain. The format is biochemical. The settings on record: 20 μM ATP. The method in brief: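 Compounds incubated 10 min at 30 °C with 20 nM enzyme, 40 μM peptide substrate and 20 μM ATP in pH 7.4 Hepes buffer with 10 mM MgCl2. ADP formed detected by ADP Hunter Plus reagents after 20 min at 30 °C, fluorescence read at 590 nm.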

On to `Cc1cc([C@@H](C)n2c(C)nc3ccc(-c4cc(N)nc(N)c4)nc32)ccn1` [Example 32, 4-{2-methyl-3-[(I R)-1-(2-methylpyridin-4-yl)ethyl]-3H-imidazo[4,5-b]pyridin-5-yl}pyridine-2,6-diamine], for which the IC50 (as a rule, the concentration needed to halve the response being measured) against DYRK1A stood at 0.095 µM; in test [1], 0.037 µM.
Consider `CCC(C)n1c(C)nc2ccc(-c3cc(N)nc(N)c3)nc21` (stereo not shown) [Example 33, 4-[3-(butan-2-yl)-2-methyl-3H-imidazo[4,5-b]pyridin-5-yl]pyridine-2,6-diamine], for which the IC50 against DYRK1A was 0.045 µM; in test [1] it was 0.018 µM.
For `CCOC(=O)N1CCC(n2c(C)nc3ccc(-c4cc(N)nc(N)c4)nc32)CC1` [Example 35], in that order: 0.012 µM and 0.008 µM.
On the same counts, the results for `Cc1nc2ccc(-c3cc(N)nc(N)c3)nc2n1CC(O)CO` (stereo not shown) [Example 37, 3-[5-(2,6-diaminopyridin-4-yl)-2-methyl-3H-imidazo[4,5-b]pyridin-3-yl]propane-1,2-diol] are 0.052 µM and 0.027 µM.
For `Cc1nc2ccc(-c3cc(N)nc(N)c3)nc2n1C1CCN(C(=O)C(C)C)CC1` [Example 38, 1-{4-[5-(2,6-diaminopyridin-4-yl)-2-methyl-3H-imidazo[4,5-b]pyridin-3-yl]piperidin-1-yl}-2-methylpropan-1-one], in that order: 0.028 µM and 0.008 µM.
On to `COc1cc(Cl)ccc1Cn1c(C)nc2ccc(-c3cc(N)nc(N)c3)nc21` [Example 39, 4-[3-(4-chloro-2-methoxybenzyl)-2-methyl-3H-imidazo[4,5-b]pyridin-5-yl]pyridine-2,6-diamine], for which the IC50 against DYRK1A was determined as 0.245 µM; in test [1], 0.045 µM.
Consider `Cc1nc2ccc(-c3cc(N)nc(N)c3)nc2n1Cc1ccc(C#N)cc1` [Example 40, 4-{[5-(2,6-diaminopyridin-4-yl)-2-methyl-3H-imidazo[4,5-b]pyridin-3-yl]methyl}benzonitrile], for which the values for the IC50 (at DYRK1A; in test [1]) were 0.154 µM and 0.187 µM, respectively.
On to `Cc1nc2ccc(-c3cc(N)nc(N)c3)nc2n1Cc1ccc(OC(F)F)cc1` [Example 43, 4-{3-[4-(difluoromethoxy)benzyl]-2-methyl-3H-imidazo[4,5-b]pyridin-5-yl}pyridine-2,6-diamine], for which the IC50 is 0.116 µM on DYRK1A and 0.109 µM in test [1].
On the same counts, the results for `Cc1nn(C)c(C)c1Cn1c(C)nc2ccc(-c3cc(N)nc(N)c3)nc21` [Example 45, 4-{2-methyl-3-[(3,5-trimethyl-1H-pyrazol-4-yl)methyl]-3H-imidazo[4,5-b]pyridin-5-yl}pyridine-2,6-diamine] are 0.177 µM and 0.055 µM.
On the same counts, the results for `Cc1nc2ccc(-c3cc(N)nc(N)c3)nc2n1Cc1cc(F)ccc1F` [Example 46, 4-[3-(2,5-difluorobenzyl)-2-methyl-3H-imidazo[4,5-b]pyridin-5-yl]pyridine-2,6-diamine] are 0.056 µM and 0.035 µM.
Take `Cc1nc2ccc(-c3cc(N)nc(N)c3)nc2n1Cc1cccc(Cl)c1` [Example 48, 4-[3-(3-chlorobenzyl)-2-methyl-3H-imidazo[4,5-b]pyridin-5-yl]pyridine-2,6-diamine]: the results for the IC50 (at DYRK1A; in test [1]) were 0.116 µM and 0.056 µM, respectively.
On the same counts, the results for `Cc1nc2ccc(-c3cc(N)nc(N)c3)nc2n1C(C)(C)c1ccccc1` [Example 60, 4-[2-methyl-3-(2-phenylpropan-2-yl)-3H-imidazo[4,5-b]pyridin-5-yl]pyridine-2,6-diamine] are 0.149 µM and 0.51 µM.
On the same counts, the results for `Cc1nc2ccc(-c3cc(N)nc(N)c3)nc2n1C1CCCc2ccccc21` (stereo not shown) [Example 62, 4-[2-methyl-3-(1,2,3,4-tetrahydronaphthalen-1-yl)-3H-imidazo[4,5-b]pyridin-5-yl]pyridine-2,6-diamine] are 0.166 µM and 0.781 µM.
In the case of `CCC(c1ccccc1)n1c(C)nc2ccc(-c3cc(N)nc(N)c3)nc21` (stereo not shown) [Example 67, 4-[2-methyl-3-(1-phenylpropyl)-3H-imidazo[4,5-b]pyridin-5-yl]pyridine-2,6-diamine], the figures for the IC50 (at DYRK1A; in test [1]) were 0.104 µM and 0.903 µM, respectively.
On the same counts, the results for `COc1ccccc1CCCn1c(C)nc2ccc(-c3cc(N)nc(N)c3)nc21` [Example 69, 4-{3-[3-(2-methoxyphenyl)propyl]-2-methyl-3H-imidazo[4,5-b]pyridin-5-yl}pyridine-2,6-diamine] are 0.002 µM and 0.007 µM.
For `Cc1nc2ccc(-c3cc(N)nc(N)c3)nc2n1C1CC2CCC1C2` (stereo not shown) [Example 155, 4-[3-(bicyclo[2.2.1]hept-2-yl)-2-methyl-3H-imidazo[4,5-b]pyridin-5-yl]pyridine-2,6-diamine], in that order: 0.012 µM and 0.005 µM.
On the same counts, the results for `Cn1c(C(F)(F)F)nc2ccc(-c3cc(N)nc(N)c3)nc21` [Example 229, 4-[3-methyl-2-(trifluoromethyl)-3H-imidazo[4,5-b]pyridin-5-yl]pyridine-2,6-diamine] are 0.061 µM and 0.081 µM.
In the case of `CCCCn1c(C)nc2ccc(-c3cc(N)nc(NC(=O)COc4ccccc4)c3)nc21` [Example 230, N-[6-amino-4-(3-butyl-2-methyl-3H-imidazo[4,5-b]pyridin-5-yl)pyridin-2-yl]-2-phenoxyacetamide], the IC50 was found to be 0.221 µM on DYRK1A and 0.928 µM in test [1].
For `CCCCn1c(C)nc2ccc(-c3cc(N)nc(NC(=O)c4ccccc4Cl)c3)nc21` [Example 233, N-[6-amino-4-(3-butyl-2-methyl-3H-imidazo[4,5-b]pyridin-5-yl)pyridin-2-yl]-2-chlorobenzamide], in that order: 0.224 µM and 0.303 µM.
With `CCCCn1c(C)nc2ccc(-c3cc(N)nc(NC(=O)C4CCCCC4)c3)nc21` [Example 234, N-[6-amino-4-(3-butyl-2-methyl-3H-imidazo[4,5-b]pyridin-5-yl)pyridin-2-yl]cyclohexanecarboxamide], the IC50 was 0.09 µM against DYRK1A and 0.236 µM in test [1].
